From patent US7312237B2, “Combination of epothilone analogs and chemotherapeutic agents for the treatment of prolilferative diseases” (Bristol-Myers Squibb Co., priority 2001, dated 2007)

Tests used:
[1] = test system: HCT116 human colon carcinoma cell line; test: Clonogenic cell colony-formation assay (single agent and combination, isobologram); type: cell-based; conditions: concentration killing clonogenic HCT-116 cells by 90%
Description: Analysis of the effects of combination treatment in vitro was by the isobologram and multiplicity methods described by Stephens and Steel
The success of an anticancer agent is dependent not only on its antitumor activity as a single agent but also on its ability to combine successfully with other antineoplastic drugs.

HCT116/VM46 = test: In vitro cytotoxicity (MTS assay), HCT116/VM46; type: cell-based, human
MIP = test: In vitro cytotoxicity (MTS assay), MIP; type: cell-based; conditions: 72 h
Experimental: (§1) The in vitro cytotoxicity was assessed in tumor cells by a tetrazolium-based colorimetric assay which takes advantage of the metabolic conversion of MTS (3-(4,5-dimethylthiazol-2-yl)-5-(3-carboxymethoxyphenyl)-2-(4-sulphenyl)-2H-tetrazolium, inner salt) to a reduced form that absorbs light at 492 nm. Cells were seeded 24 hr prior to drug addition. Following a 72 hour incubation at 37° C. with serially diluted compound, MTS, in combination with the electron coupling agent phenazine methosulfate, was added to the cells. The incubation was continued for 3 hours, then the absorbancy of the medium at 492 nm was measured with a spectrophotometer to obtain the number of surviving cells relative to control populations. The results are expressed as median cytotoxic concentrations (IC50 values).

[2] = In vivo antitumor testing, HCT116 xenograft; parameters: species or system nude mice; conditions: nude, mouse, in vivo, read-out: OD (optimal dose or MTD)
Experimental: All tumor implants for efficacy testing were subcutaneous (sc).
(§2) The MTD was frequently equivalent to OD. When death occurs, the day of death was recorded.
(§3) And, Log cell kill=T−C÷(3.32×TVDT)

[3] = test system: A2780Tax human ovarian carcinoma; conditions: Expt. 12, IV q2dx5, OD 6.3 mg/kg
Description: (§4) The following human tumors were used: A2780 ovarian, A2780Tax ovarian (established from cells obtained from Dr. Antonio Fojo, Medicine Branch, NCI, Bethesda, Md.), HCT116/VM46 colon, Pat-7 ovarian (established from a tumor biopsy provided by Dr. Thomas Hamilton, Fox Chase Cancer Center, Philadelphia, Pa.) from a patient who had developed resistance to TAXOL®). The murine fibrosarcoma M5076 was also employed.
The following tumors were passaged in the indicated host strain of mouse: murine M5076 fibrosarcoma (M5076) in C57Bl/6 mice; human A2780 and Pat-7 ovarian carcinomas, HCT116, HCT116/VM46 and LS174T colon carcinoma, Pat-21 breast carcinoma in nude mice. Tumor passage occurred biweekly for murine tumors and approximately every two to eight weeks for the various human tumor lines. With regard to efficacy testing, M5076 tumors were implanted in (C57Bl/6×DBA/2)F1 hybrid mice, and human tumors were implanted in nude mice. All tumor implants for efficacy testing were subcutaneous (sc). […]
(§5) Antitumor activity was evaluated at the maximum tolerated dose (MTD) which is defined as the dose level immediately […] which excessive toxicity (i.e. more than one death) occurred. […] When death occurs, the day of death was recorded. […]
(§6) To estimate tumor cell kill, the tumor volume doubling time was first calculated with the formula: […]

[4] = test system: normal mouse lung fibroblast cell line MLF; test: In vitro cytotoxicity (MTS assay), MLF; type: cell-based
Experimental: as §1

[5] = human, in vivo
[6] = test system: A2780 human ovarian carcinoma; test: In vivo antitumor testing, A2780 in nude rats
Experimental: as §2, §3
A2780 grown in nude rats was also utilized.

HCT116 cells = test: Mitotic blockade (cell cycle progression); type: cell-based, human; conditions: 7.5 nM, 8 hours
[7] = test system: tubulin isolated from calf brain; test: Tubulin polymerization assay; type: biochemical
[8] = test system: HCT116/VM46 human colon carcinoma; test: in vivo
Description: as §4
(§7) The following tumors were passaged in the indicated host strain of mouse: murine M5076 fibrosarcoma (M5076) in C57Bl/6 mice; human A2780 and Pat-7 ovarian carcinomas, HCT116, HCT116/VM46 and LS174T colon carcinoma, Pat-21 breast carcinoma in nude mice. Tumor passage occurred biweekly for murine tumors and approximately every two to eight weeks for the various human tumor lines. With regard to efficacy testing, M5076 tumors were implanted in (C57Bl/6×DBA/2)F1 hybrid mice, and human tumors were implanted in nude mice. All tumor implants for efficacy testing were subcutaneous (sc).
(§8) The required number of animals needed to detect a meaningful response were pooled at the start of the experiment and each was given a subcutaneous implant of a tumor fragment (·50 mg) with a 13-gauge trocar. For treatment of early-stage tumors, the animals were again pooled before distribution to the various treatment and control groups. For treatment of animals with advanced-stage disease, tumors were allowed to grow to the predetermined size window (tumors outside the range were excluded) and animals were evenly distributed to various treatment and control groups. Treatment of each animal was based on individual body weight. Treated animals were checked daily for treatment related toxicity/mortality. Each group of animals was weighed before the initiation of treatment (Wt1) and then again following the last treatment dose (Wt2). The difference in body weight (Wt2−Wt1) provides a measure of treatment-related toxicity.
(§9) Tumor weights (mg) were estimated from the formula: Tumor weight=(length×width^2)÷2
(§10) Antitumor activity was evaluated at the maximum tolerated dose (MTD) which is defined as the dose level immediately […] which excessive toxicity (i.e. more than one death) occurred. […] When death occurs, the day of death was recorded.
(§11) Tumor response end-point was expressed in terms of tumor growth delay (T-C value), defined as the difference in time (days) required for the treated tumors (T) to reach a predetermined target size compared to those of the control group (C).
(§12) To estimate tumor cell kill, the tumor volume doubling time was first calculated with the formula:
(§13) TVDT=Median time (days) for control tumors to reach target size−Median time (days) for control tumors to reach half the target size
(§14) HCT116/VM46 is an MDR-resistant colon carcinoma developed from the sensitive HCT116 parent line.

in vivo = conditions: nude, mouse, in vivo, iv, Compound 1 IV
Description: as §4, §7, §8, §9, §10, §11, §12, §13, §14

Pat-21 breast carcinoma = conditions: Expt. R667, IV q4dx3; 41, 68, OD 10 mg/kg; interim analysis, study in progress
Description: as §7, §8, §9, §5, §6

HCT-116 = test: In vitro cytotoxicity (MTS assay), HCT-116; type: cell-based; conditions: Homo sapiens; HCT-116, 72 hour incubation
Experimental: HCT116 human carcinoma cell lines and HCT116/VM46 cells, a MDR variant, were maintained in McCoy's 5A medium (GIBCO) and 10% heat inactivated fetal bovine serum (GIBCO). A2780 human ovarian carcinoma cells and A2780Tax cells obtained from Dr. Antonio Fojo (NCI, Bethesda, Md.) were maintained in IMEM (GIBCO) and 10% fetal bovine serum (GIBCO).
as §1

C/C(=C\c1csc(C)n1)[C@@H]1C[C@@H]2O[C@]2(C)CCC[C@H](C)[C@H](O)[C@@H](C)C(=O)C(C)(C)[C@@H](O)CC(=O)N1 (relative stereo) [Compound 1, [1S-[1R*,3R*(E),7R*,10S*,11R*,12R*,16S*]]-7,11-dihydroxy-8,8,10,12,16-pentamethyl-3-[1-methyl-2-(2-methyl-4-thiazolyl)ethenyl]-4-aza-17-oxabicyclo[14.1.0] heptadecane-5,9-dione]
IC90 [1]: ~0.0075 µM
IC50 (HCT116/VM46; Homo sapiens, HCT-116/VM46, HCT116/VM46 (MDR), 72 hour incubation): 0.0245 µM
resistance ratio (R/S) (HCT116/VM46; IC50 HCT116/VM46 versus sensitive HCT116): 9.4
IC50 (MIP): 0.0248 µM
MTD ([2]; iv, Compound 1 IV, q2dx5): 6.3 mg/kg
MTD ([2]; iv, Compound 1 IV, q4dx3): 10 mg/kg
MTD ([2]; iv, Compound 1 IV, q8dx2): 24 mg/kg
MTD ([2]; po, Compound 1 PO, q2dx5): 90 mg/kg
LCK (gross log cell kill) [3]: 2.5
IC50 [4]: 0.0345 µM
dose recommended for Phase II clinical trials [5]: 50 mg/m2
MTD ([6]; Compound 1, every 2 days x5, nude rats): 1.2 mg/kg/inj
LCK ([6]; nude rats, every 2 days x5, MTD 1.2 mg/kg/inj): 0.3
block of cells in mitosis (HCT116 cells): almost completely blocks cells in mitosis
Ratio of Polymerization Potency of Analog/Paclitaxel [7]: 0.4
OD (optimal dose or MTD) ([8]; Compound 1 IV, q2dx5): 6.3 mg/kg
OD (optimal dose or MTD; maximum tolerated regimen) ([8]; Compound 1 IV, q4dx3): 16 mg/kg
LCK (gross log cell kill) ([8]; Expt. 32, IV q2dx5, OD 4.8 mg/kg): 3.1
LCK (gross log cell kill) ([8]; Expt. 33, IV q2dx5, OD 4.8 mg/kg): 1.3
LCK (gross log cell kill) ([8]; Expt. 35, IV q2dx5, OD 6.3 mg/kg): 1.8
LCK (gross log cell kill) ([8]; Expt. 35, IV q4dx3, OD 16 mg/kg): 2.0
LCK of tumor response ([8]; FIG. 7, Compound 1 alone, 15 mg/kg iv, q4dx3): 1.6 LCK
tumor cure ([8]; FIG. 7, single agent treatment at maximum tolerated regimen): did not induce tumor cure
MTD (in vivo; OD (optimal dose or MTD), q2dx5): 4.8 mg/kg
MTD (in vivo; OD (optimal dose or MTD; maximum tolerated regimen), q4dx3): 15 mg/kg
LCK (gross log cell kill) (Pat-21 breast carcinoma): >1.5^5
IC50 (HCT-116): 0.0026 µM
